The results in this text go back to Sander's compilation of Henry's law constants (doi:10.1021/je0000266).

SMILES strings stand for the structures.

The nature of the series: Henry solubility constant Hcp at 298.15 K (mol/(m3 Pa)). Particulars: reference: Bamford et al. (2000).
On to `Clc1cc(Cl)c(-c2ccccc2Cl)c(Cl)c1` [2,2',4,6-tetrachlorobiphenyl], for which the “Henry solubility constant Hcp” value turned out to be 0.016.

In the case of `Clc1ccc(Cl)c(-c2cc(Cl)ccc2Cl)c1` [2,2',5,5'-tetrachlorobiphenyl], the “Henry solubility constant Hcp” value came to 0.032.

With `Clc1cc(Cl)c(-c2c(Cl)c(Cl)cc(Cl)c2Cl)c(Cl)c1Cl` [2,2',3,3',4,5',6,6'-octachlorobiphenyl], the “Henry solubility constant Hcp” value came to 0.01.

Consider `Clc1cc(Cl)c(-c2c(Cl)c(Cl)cc(Cl)c2Cl)c(Cl)c1` [2,2',3,4',5,6,6'-heptachlorobiphenyl], for which the “Henry solubility constant Hcp” value was 0.0088.

For the compound `Clc1cc(Cl)c(-c2c(Cl)c(Cl)cc(Cl)c2Cl)cc1Cl` [2,2',3,4',5,5',6-heptachlorobiphenyl], the “Henry solubility constant Hcp” value was 0.016.

In the case of `Clc1ccc(Cl)c(-c2cc(Cl)c(Cl)cc2Cl)c1` [2,2',4,5,5'-pentachlorobiphenyl], the “Henry solubility constant Hcp” value was 0.024.

With `Clc1ccc(-c2ccc(Cl)c(Cl)c2Cl)cc1Cl` [2,3,3',4,4'-pentachlorobiphenyl], the “Henry solubility constant Hcp” value worked out at 0.03.

Take `Clc1ccccc1-c1ccccc1` [2-chlorobiphenyl]: the “Henry solubility constant Hcp” value was found to be 0.049.

On to `Clc1ccc(Cl)c(-c2cccc(Cl)c2Cl)c1` [2,2',3,5'-tetrachlorobiphenyl], for which the “Henry solubility constant Hcp” value came out at 0.036.

With `Clc1ccc(-c2ccc(Cl)c(Cl)c2)c(Cl)c1` [2,3',4,4'-tetrachlorobiphenyl], the “Henry solubility constant Hcp” value stood at 0.027.

`Clc1ccc(Cl)c(-c2ccccc2Cl)c1` [2,2',5-trichlorobiphenyl]: the “Henry solubility constant Hcp” value was 0.039.

For the compound `Clc1ccc(-c2cc(Cl)c(Cl)cc2Cl)cc1Cl` [2,3',4,4',5-pentachlorobiphenyl], the “Henry solubility constant Hcp” value is 0.028.

For the compound `Clc1cc(Cl)c(-c2ccc(Cl)c(Cl)c2Cl)cc1Cl` [2,2',3,4,4',5'-hexachlorobiphenyl], the “Henry solubility constant Hcp” value is 0.022.

For `Clc1ccc(-c2ccccc2Cl)cc1` [2,4'-dichlorobiphenyl], the “Henry solubility constant Hcp” value worked out at 0.04.

Consider `Clc1ccc(-c2ccc(Cl)c(Cl)c2)cc1Cl` [3,3',4,4'-tetrachlorobiphenyl], for which the “Henry solubility constant Hcp” value turned out to be 0.062.

On to `Clc1ccc(-c2cc(Cl)c(Cl)c(Cl)c2)cc1Cl` [3,3',4,4',5-pentachlorobiphenyl], for which the “Henry solubility constant Hcp” value worked out at 0.048.

With `Clc1cc(Cl)c(-c2cc(Cl)c(Cl)cc2Cl)cc1Cl` [2,2',4,4',5,5'-hexachlorobiphenyl], the “Henry solubility constant Hcp” value amounted to 0.019.

For the compound `Clc1cc(Cl)c(-c2cc(Cl)c(Cl)cc2Cl)c(Cl)c1` [2,2',4,4',5,6'-hexachlorobiphenyl], the “Henry solubility constant Hcp” value is 0.013.
